Source: US20110065663A1, “ANTI-CANCER COMBINATION THERAPY” (Katholieke Universiteit Leuven, K.U. Leuven R&D, priority 2008, published 2011)
Where two headings read alike, the source gives them in different places.

How the values were obtained:
Type in all cases: cell-based, human
MCF-7 cells = experiment: Tumor cell proliferation assay, uninfected MCF-7 cells; conditions: for IC50: Homo sapiens, uninfected MCF-7; for Ratio (1)/(2) MCF-7: IC50 in the absence of TPi to IC50 in the presence of TPi
Method: MCF-7 and MCF-7/HYOR cells were seeded in 48-well plates at 10,000 cells/cm^2. […] of the test compounds (5FU, 5′DFUR, CIdUrd, BrdUrd, IdUrd and TFT) with or without 10 μM TPi were added. The cells were incubated for another 4 days, trypsinized and counted by a Coulter counter (Analis, Suarlée, Belgium). In some experiments, the antibiotic plasmocin was added one or three days before addition of the test compounds.

MCF-7/HYOR cells [1] = experiment: Tumor cell proliferation assay, M. hyorhinis-infected MCF-7 cells; conditions: for IC50: Homo sapiens, MCF7; for Ratio (1)/(2) MCF-7/HYOR: IC50 in the absence of TPi to IC50 in the presence of TPi; for Anti-proliferative activity in MCF-7/HYOR after three days pre-incubation with doxycycline / Anti-proliferative activity in MCF-7/HYOR after three days pre-incubation with plasmocin: 3 days
Method: Mycoplasma hyorhinis (ATCC 17981) was obtained from the American Type Culture Collection (ATCC, Manassas, Va.). The freeze-dried bacteria were reconstituted by adding 1 ml of DMEM. […] The co-culture of MCF-7 cells and M. hyorhinis was maintained under the same conditions as the uninfected MCF-7 cells. […] The cells were incubated for another 4 days, trypsinized and counted by a Coulter counter (Analis, Suarlée, Belgium).

MCF-7/HYOR cells [2] = experiment: Nucleotide incorporation assay, MCF-7/HYOR compared with MCF-7 cells; conditions: 1 μCi radiolabeled compound; FIG. 4
Method: MCF-7 and MCF-7/HYOR cells were seeded at 10,000 cells/cm. After 48 hours, cells were treated with 1 μCi of ^3H-labeled nucleoside with or without 10 μM TPi. 16 h later, the medium was removed and the cells were washed twice with PBS. Next, the cells were trypsinized, transferred to Eppendorf tubes and centrifuged for 10 minutes at 1,400 rpm. The pellet was resuspended in 1 ml absolute ice-cold methanol and kept on ice for 20 minutes. After centrifugation for 20 minutes at 13,000 rpm the pellet was washed twice with methanol, resuspended in methanol and transferred to scintillation vials containing 9 ml of Ready safe liquid scintillation reagent (‘Hisafe 3’, Perkin Elmer, Waltham, Mass.). The radioactivity was measured by a Liquid scintillation analyzer (2300 TR, Packard, Canberra, Australia).

MCF-7/HYOR cell cultures = experiment: Nucleoside metabolism experiments, distribution of drug-derived radiolabel in MCF-7/HYOR cell cultures; conditions: MCF-7/HYOR
Method: Next, the cells were trypsinized, transferred to Eppendorf tubes and centrifuged for 10 minutes at 1,400 rpm. The pellet was resuspended in 1 ml absolute ice-cold methanol and kept on ice for 20 minutes. After centrifugation for 20 minutes at 13,000 rpm the pellet was washed twice with methanol, resuspended in methanol and transferred to scintillation vials containing 9 ml of Ready safe liquid scintillation reagent (‘Hisafe 3’, Perkin Elmer, Waltham, Mass.). The radioactivity was measured by a Liquid scintillation analyzer (2300 TR, Packard, Canberra, Australia). […] Next, the cells were incubated in 0.5 ml absolute ice-cold methanol and kept on ice for 20 minutes. After centrifugation for 20 minutes at 13,000 rpm, the supernatant was subjected to HPLC analysis. […] The amount of compound incorporated into nucleic acids was measured as described above.

[3] = MCF7, 96 h, no TPi, 4 days, read-out: IC50 MCF-7 As such
[4] = MCF7, with 10 μM TPi, read-out: IC50 MCF-7 +TPi (10 μM)
[5] = M. hyorhinis-infected MCF-7, no TPi, no plasmocin, read-out: IC50 MCF-7/HYOR As such
[6] = M. hyorhinis-infected MCF-7, with 10 μM TPi, read-out: IC50 MCF-7/HYOR +TPi (10 μM)
[7] = plasmocin 25 μg/ml, 1 day pretreatment, read-out: IC50 MCF-7/HYOR +plasmocin (25 μg/ml) 1 day prior to addition of test compounds
[8] = plasmocin 25 μg/ml, 3 days pretreatment, read-out: IC50 MCF-7/HYOR +plasmocin (25 μg/ml) 3 days prior to addition of test compounds

Structure (SMILES)	IC50 (MCF-7/HYOR cells [1]; [5])	IC50 (MCF-7/HYOR cells [1]; [6])	IC50 (MCF-7 cells; [3])	IC50 (MCF-7 cells; [4])	Ratio (1)/(2) MCF-7 (MCF-7 cells)	Ratio (1)/(2) MCF-7/HYOR (MCF-7/HYOR cells [1])	Incorporation into nucleic acids, infected versus uninfected MCF-7 cells (in words) (MCF-7/HYOR cells [2])	other results
O=c1[nH]cc(C(F)(F)F)c(=O)[nH]1 [TF-thymine]							no difference	
O=c1ccn([C@H]2C[C@H](O)[C@@H](CO)O2)c(=O)[nH]1 [dUrd, 2′-deoxyuridine]								Reduction of incorporation into nucleic acids in infected MCF-7/HYOR cells in comparison with uninfected MCF-7 cells (MCF-7/HYOR cells [2]): 3 fold
Cc1c[nH]c(=O)[nH]c1=O [thymine]							no difference	
O=c1cc[nH]c(=O)[nH]1 [uracil]							no difference	

More lines, main results first:

IC50 (MCF-7/HYOR cells [1]; [5])	IC50 (MCF-7/HYOR cells [1]; [6])	Structure (SMILES)	IC50 (MCF-7 cells; [3])	IC50 (MCF-7 cells; [4])	Ratio (1)/(2) MCF-7 (MCF-7 cells)	Ratio (1)/(2) MCF-7/HYOR (MCF-7/HYOR cells [1])	Incorporation into nucleic acids, infected versus uninfected MCF-7 cells (in words) (MCF-7/HYOR cells [2])	other results
750 ± 240 nM	530 ± 250 nM	O=c1[nH]cc(F)c(=O)[nH]1 [5FU, 5-fluorouracil]	810 ± 240 nM	620 ± 290 nM	1.3	1.4	no difference	IC50 (MCF-7/HYOR cells [1]; [7]): 740 ± 110 nM; IC50 (MCF-7/HYOR cells [1]; [8]): 670 ± 110 nM
8600 ± 1170 nM	840 ± 240 nM	O=c1[nH]c(=O)n([C@H]2C[C@H](O)[C@@H](CO)O2)cc1Br [BrdUrd, 5-bromo-2′-deoxyuridine]	590 ± 100 nM	360 ± 10 nM	1.6	10		IC50 (MCF-7/HYOR cells [1]; [7]): 2220 ± 1100 nM; IC50 (MCF-7/HYOR cells [1]; [8]): 740 ± 200 nM; % of drug-derived radiolabel, In medium, Base (MCF-7/HYOR cell cultures; 1 μCi, 16 h): 49.5%; % of drug-derived radiolabel, In medium, Nucleoside (MCF-7/HYOR cell cultures; 1 μCi, 16 h): 42.0%; % of drug-derived radiolabel, In the cytosol of the cells, 5′-diphosphate (MCF-7/HYOR cell cultures; 1 μCi, 16 h): 0.2%; % of drug-derived radiolabel, In the cytosol of the cells, 5′-monophosphate (MCF-7/HYOR cell cultures; 1 μCi, 16 h): 0.4%; % of drug-derived radiolabel, In the cytosol of the cells, 5′-triphosphate (MCF-7/HYOR cell cultures; 1 μCi, 16 h): 0.2%; % of drug-derived radiolabel, In the cytosol of the cells, Nucleoside/nucleobase (MCF-7/HYOR cell cultures; 1 μCi, 16 h): 6.4%; % of drug-derived radiolabel, Incorporatio into DNA/RNA (MCF-7/HYOR cell cultures; 1 μCi, 16 h): 1.4%; Share incorporated into the nucleic acids in the presence of TPi (MCF-7/HYOR cell cultures; in the presence of TPi): almost all; Reduction of incorporation into nucleic acids in infected MCF-7/HYOR cells in comparison with uninfected MCF-7 cells (MCF-7/HYOR cells [2]): 45 fold
13000 ± 2870 nM	1400 ± 700 nM	O=c1[nH]c(=O)n([C@H]2C[C@H](O)[C@@H](CO)O2)cc1Cl [CldUrd, 5-chloro-2′-deoxyuridine]	760 ± 190 nM	640 ± 150 nM	1.2	9.3		
12000 ± 500 nM	310 ± 50 nM	O=c1[nH]c(=O)n([C@H]2C[C@H](O)[C@@H](CO)O2)cc1I [IdUrd, 5-iodo-2′-deoxyuridine]	1100 ± 260 nM	980 ± 390 nM	1.1	39		
1200 ± 800 nM	68 ± 3 nM	Nc1ccn([C@@H]2O[C@H](CO)[C@@H](O)[C@@H]2O)c(=O)n1 [araC, cytarabine]	50 ± 4 nM	48 ± 9 nM	1.0	17		Anti-proliferative activity in MCF-7/HYOR after three days pre-incubation with doxycycline (MCF-7/HYOR cells [1]): restores; Anti-proliferative activity in MCF-7/HYOR after three days pre-incubation with plasmocin (MCF-7/HYOR cells [1]; plasmocin 25 μg/ml): restores
13000 ± 3000 nM	780 ± 230 nM	Nc1nc(Cl)nc2c1ncn2[C@H]1C[C@H](O)[C@@H](CO)O1 [cladribine]	460 ± 150 nM	390 ± 160 nM	1.2	17		Reduction of cytostatic activity in infected MCF-7/HYOR compared to control MCF-7 cells (MCF-7/HYOR cells [1]; M. hyorhinis infection): about 30 fold; Anti-proliferative activity in MCF-7/HYOR after three days pre-incubation with doxycycline (MCF-7/HYOR cells [1]): restores; Anti-proliferative activity in MCF-7/HYOR after three days pre-incubation with plasmocin (MCF-7/HYOR cells [1]; plasmocin 25 μg/ml): restores
